Results: PubChem BioAssay AID1963444 (Molecular Pharmacology Branch, DTP, NCI, 2024)

Tested on: HSSY-II complex spheroid growth, percent test/control
Assay: Anticancer human tumor HSSY-II cell line growth inhibition [Asc];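 also: spheroids exposed to drug for 7 days before reading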
Conditions: for IC50: curve of first compound; for viability, T/C: stronger effect = lower value
Description: Multicellular complex tumor spheroid response to apoptosis pathway targeting inhibitors Alrizomadlin, Pelcitoclax, and Dasminapant in combination with a variety of drugs and investigational agents in selected tumor cell lines
The MDM2 inhibitor alrizomadlin, the Bcl-2/Bcl-xL inhibitor pelcitoclax, and the IAPs inhibitor dasminapant were evaluated both individually and in combination with standard of care and investigational anticancer small molecules within a complex spheroid model of solid tumors. . Complex spheroids include a stromal component modeled by human endothelial cells (HUVEC) and fibroblasts modeled by human mesenchymal stem cells (MSCs). The concentration ranges selected for each drug and investigational agent were based upon clinically achievable concentrations if the clinical Cmax of the agent was known.
Compounds. The drugs and investigational agents: alrizomadlin (APG-115; NSC831270), pelcitoclax (APG-1252; NSC835773), dasminapant (APG-1387;NSC834197), TAK-243 (NSC785004), copanlisib (NSC809693), olaparib (NSC753686), talazoparib (NSC767125), cobimetinib (NSC 768068), eltanexor (KPT-8602, NSC 794443), abemaciclib (NSC 768073), sotorasib (NSC818433), adagrasib (NSC 831453), MRTX-1133 (NSC 836407), Iadademestat (ORY1001, NSC 806812), and RMC-4630 (NSC839698), were obtained from the NCI Developmental Therapeutics Program Chemical Repository. The FDA-approved anticancer drug set is available from the Developmental Therapeutics Program at https://dtp.cancer.gov/organization/dscb/obtaining/available plates.htm. […] The stock solutions were prepared in dimethyl sulfoxide (DMSO, Sigma-Aldrich, St. Louis, MO, cat. D2650) at 800-fold the tested concentration and stored at -70 degrees C prior to their use. All drugs and investigational agents were tested over a range starting from a high concentration at or near the clinical Cmax and decreasing in half-log increments. If the clinical Cmax for an agent had not been determined, the highest concentration tested was 10 microM.
The patient-derived cancer (PDC) cell lines include five colon adenocarcinomas: 186277-243-T-J2-PDC, 616215-338-R-J1-PDC, 439559-082-T-J2-PDC, 463943-066-T-J2-PDC, and 519858-162-T-J1-PDC; three pancreatic carcinomas: 323965-272-R-J2-PDC, 521955-158-R6-J3-PDC, and 521955-158-R2-J5-PDC; two uterine sarcomas: 327498-152-R-J2-PDC and 993429-296-R-J1-PDC; two rhabdomyosarcomas: 755483-174-R-J1-PDC and 772245-204-R-J1-PDC; two soft tissue sarcomas: 126254-015-R-J1-PDC and 494315-158-R-J1-PDC; two malignant fibrous histiocytomas: 317291-083-R-J1-PDC and 596521-263-R-J1-PDC; two breast carcinomas: 171881-019-R-J1-PDC and 885512-296-R-J2-PDC; and one ovarian carcinoma: 6556581-035-R-J-PDC were obtained from the NCI PDMR, (https://pdmr.cancer.gov). The established cell lines HSSY-2 synovial sarcoma (RRID:CVCL 8719), SYO-1 synovial sarcoma (RRID:CVCL_7146), MPNST malignant peripheral neural sheath tumor were obtained from the Sloan Kettering Institute. The following established cell lines were purchased from the American Type Culture Collection (ATCC, Manassas, VA), Sor the received from the NCI repository:, PANC-1 pancreatic carcinoma (CRL-1469, RRID:CVCL_0480), OVCAR-5 ovarian carcinoma (RRID:CVCL_1628), OVCAR-8 ovarian carcinoma (RRID:CVCL_1629), , MCF-7 breast carcinoma (CRL-12584, RRID:CVCL_0031), MDA-MB-231 breast carcinoma (CRL-12532, RRID:CVCL_0062), NCI-H1876 small cell lung carcinoma (CRL-5902, RRID:CVCL_1503), NCI-H510A small cell lung carcinoma (HTB-184, RRID:CVCL_1565), NCI-H1417 (CRL-5869, RRID:CVCL_1469), and NCI-H196 small cell lung carcinoma (CRL-5823, RRID:CVCL_1509). Dr. Peter Houghton (Greehey Children's Cancer Research Institute, University of Texas Health Science Center, San Antonio, TX) provided Rh-18 rhabdomyosarcoma (RRID:CVCL_1659). Pooled donor human umbilical vein endothelial cells (HUVEC, Lonza, cat. CC-2519) and human mesenchymal stem cells (hMSC, Lonza, cat. PT-2501) were purchased from Lonza (Walkersville, MD).
Cell Culture. […]

In the case of `Cn1ncnc1[C@H]1c2n[nH]c(=O)c3cc(F)cc(c23)N[C@@H]1c1ccc(F)cc1` + Cc1c(S(C)(=O)=O)c(-c2cc(F)cc(N3CCN(c4ccc(NS(=O)(=O)c5ccc(NC(CCN6CCC(C(=O)OCCCP(=O)(O)O)CC6)CSc6ccccc6)c(S(=O)(=O)C(F)(F)F)c5)cc4)CC3)c2)c(-c2ccc(Cl)cc2)n1C(C)C, the IC50 (second compound 0.1 µM) is reported as 15.4 nM, the IC50 (second compound 0.316 µM) is reported as 12.7 nM and the IC50 (second compound 1 µM) is reported as 7.69 nM. It also gave an IC50 (second compound 3.16 µM) of 8.69 nM, an IC50 (second compound 10 µM) of 6.57 nM and a viability, T/C (second compound 0.1 µM, first compound 0.000316 µM) of 100%. It also gave a viability, T/C (second compound 0.1 µM, first compound 0.001 µM) of 98.9%, a viability, T/C (second compound 0.1 µM, first compound 0.00316 µM) of 81.1% and a viability, T/C (second compound 0.1 µM, first compound 0.01 µM) of 55.8%. The viability, T/C (second compound 0.1 µM, first compound 0.0316 µM) was 39.5%, the viability, T/C (second compound 0.1 µM, first compound 0.1 µM) was 23.1% and the viability, T/C (second compound 0.316 µM, first compound 0.000316 µM) was 97.6%. For the same compound, the viability, T/C (second compound 0.316 µM, first compound 0.001 µM) was 82%, the viability, T/C (second compound 0.316 µM, first compound 0.00316 µM) was 71.7% and the viability, T/C (second compound 0.316 µM, first compound 0.01 µM) was 55.5%. It also gave a viability, T/C (second compound 0.316 µM, first compound 0.0316 µM) of 33.6%, a viability, T/C (second compound 0.316 µM, first compound 0.1 µM) of 18.2% and a viability, T/C (second compound 1 µM, first compound 0.000316 µM) of 96.4%. The viability, T/C (second compound 1 µM, first compound 0.001 µM) was 82.2%, the viability, T/C (second compound 1 µM, first compound 0.00316 µM) was 63.4% and the viability, T/C (second compound 1 µM, first compound 0.01 µM) was 50.3%. The viability, T/C (second compound 1 µM, first compound 0.0316 µM) was 22.4%, the viability, T/C (second compound 1 µM, first compound 0.1 µM) was 13% and the viability, T/C (second compound 3.16 µM, first compound 0.000316 µM) was 95.8%. For the same compound, the viability, T/C (second compound 3.16 µM, first compound 0.001 µM) was 84.2%, the viability, T/C (second compound 3.16 µM, first compound 0.00316 µM) was 73.6% and the viability, T/C (second compound 3.16 µM, first compound 0.01 µM) was 47.5%. The viability, T/C (second compound 3.16 µM, first compound 0.0316 µM) was 21.6%, the viability, T/C (second compound 3.16 µM, first compound 0.1 µM) was 10.4% and the viability, T/C (second compound 10 µM, first compound 0.000316 µM) was 82.2%. It also gave a viability, T/C (second compound 10 µM, first compound 0.001 µM) of 75.5%, a viability, T/C (second compound 10 µM, first compound 0.00316 µM) of 65.4% and a viability, T/C (second compound 10 µM, first compound 0.01 µM) of 42.4%. It also gave a viability, T/C (second compound 10 µM, first compound 0.0316 µM) of 16.9% and a viability, T/C (second compound 10 µM, first compound 0.1 µM) of 11.3%.

In the case of `O=C(c1cc(Cc2n[nH]c(=O)c3ccccc23)ccc1F)N1CCN(C(=O)C2CC2)CC1` + CCN1C(C(=O)NC23CCC(C(=O)O)(CC2)CC3)C(c2cccc(Cl)c2F)C2(C(=O)Nc3cc(Cl)ccc32)C12CCCCC2, the IC50 (second compound 0.03 µM) is reported as 1760 nM, the IC50 (second compound 0.0949 µM) is reported as 196 nM and the IC50 (second compound 0.3 µM) is reported as < 31.6 nM. The IC50 (second compound 0.949 µM) was < 31.6 nM, the IC50 (second compound 3 µM) was < 31.6 nM and the viability, T/C (second compound 0.03 µM, first compound 0.0316 µM) was 81.5%. For the same compound, the viability, T/C (second compound 0.03 µM, first compound 0.1 µM) was 75.1%, the viability, T/C (second compound 0.03 µM, first compound 0.316 µM) was 84.5% and the viability, T/C (second compound 0.03 µM, first compound 1 µM) was 63.6%. For the same compound, the viability, T/C (second compound 0.03 µM, first compound 3.16 µM) was 34.5%, the viability, T/C (second compound 0.03 µM, first compound 10 µM) was 14.1% and the viability, T/C (second compound 0.0949 µM, first compound 0.0316 µM) was 52.9%. The viability, T/C (second compound 0.0949 µM, first compound 0.1 µM) was 52.4%, the viability, T/C (second compound 0.0949 µM, first compound 0.316 µM) was 47.2% and the viability, T/C (second compound 0.0949 µM, first compound 1 µM) was 38.5%. It also gave a viability, T/C (second compound 0.0949 µM, first compound 3.16 µM) of 18.7%, a viability, T/C (second compound 0.0949 µM, first compound 10 µM) of 9.39% and a viability, T/C (second compound 0.3 µM, first compound 0.0316 µM) of 23.5%. It also gave a viability, T/C (second compound 0.3 µM, first compound 0.1 µM) of 20.9%, a viability, T/C (second compound 0.3 µM, first compound 0.316 µM) of 18.3% and a viability, T/C (second compound 0.3 µM, first compound 1 µM) of 15.5%. For the same compound, the viability, T/C (second compound 0.3 µM, first compound 3.16 µM) was 9.8%, the viability, T/C (second compound 0.3 µM, first compound 10 µM) was 6.14% and the viability, T/C (second compound 0.949 µM, first compound 0.0316 µM) was 6.91%. It also gave a viability, T/C (second compound 0.949 µM, first compound 0.1 µM) of 7.91%, a viability, T/C (second compound 0.949 µM, first compound 0.316 µM) of 6.69% and a viability, T/C (second compound 0.949 µM, first compound 1 µM) of 7.17%. For the same compound, the viability, T/C (second compound 0.949 µM, first compound 3.16 µM) was 6.79%, the viability, T/C (second compound 0.949 µM, first compound 10 µM) was 5.66% and the viability, T/C (second compound 3 µM, first compound 0.0316 µM) was 3.25%. It also gave a viability, T/C (second compound 3 µM, first compound 0.1 µM) of 2.79%, a viability, T/C (second compound 3 µM, first compound 0.316 µM) of 3.26% and a viability, T/C (second compound 3 µM, first compound 1 µM) of 2.73%. It also gave a viability, T/C (second compound 3 µM, first compound 3.16 µM) of 2.56% and a viability, T/C (second compound 3 µM, first compound 10 µM) of 3.28%.
